# Columns and labels:
# [1] = tested on: Salmonella typhimurium; test: Mutagenic activity in Salmonella Typhimurium TA97 assessed as number of his+ revertants at 100 ug/plate after 48 to 72 hrs by Ames test in absence of S9 fraction; assay type: toxicity, organism-based; conditions: salmonella enterica subsp. enterica serovar typhimurium
# [2] = tested on: Salmonella typhimurium; test: Mutagenic activity in Salmonella Typhimurium TA97 assessed as number of his+ revertants at 100 ug/plate after 48 to 72 hrs by Ames test in presence of S9 fraction; assay type: toxicity, organism-based; conditions: salmonella enterica subsp. enterica serovar typhimurium
# [3] = tested on: Salmonella typhimurium; test: Mutagenic activity in Salmonella Typhimurium TA97 assessed as number of his+ revertants at 500 ug/plate after 48 to 72 hrs by Ames test in absence of S9 fraction; assay type: toxicity, organism-based; conditions: salmonella enterica subsp. enterica serovar typhimurium
# [4] = tested on: Salmonella typhimurium; test: Mutagenic activity in Salmonella Typhimurium TA97 assessed as number of his+ revertants at 500 ug/plate after 48 to 72 hrs by Ames test in presence of S9 fraction; assay type: toxicity, organism-based; conditions: salmonella enterica subsp. enterica serovar typhimurium
# [5] = tested on: Salmonella typhimurium; test: Mutagenic activity in Salmonella Typhimurium TA97 assessed as number of his+ revertants at 1000 ug/plate after 48 to 72 hrs by Ames test in absence of S9 fraction; assay type: toxicity, organism-based; conditions: salmonella enterica subsp. enterica serovar typhimurium
# [6] = tested on: Salmonella typhimurium; test: Mutagenic activity in Salmonella Typhimurium TA97 assessed as number of his+ revertants at 1000 ug/plate after 48 to 72 hrs by Ames test in presence of S9 fraction; assay type: toxicity, organism-based; conditions: salmonella enterica subsp. enterica serovar typhimurium
# [7] = tested on: Salmonella typhimurium; test: Mutagenic activity in Salmonella Typhimurium TA98 assessed as number of his+ revertants at 100 ug/plate after 48 to 72 hrs by Ames test in absence of S9 fraction; assay type: toxicity, organism-based; conditions: salmonella enterica subsp. enterica serovar typhimurium
# [8] = tested on: Salmonella typhimurium; test: Mutagenic activity in Salmonella Typhimurium TA98 assessed as number of his+ revertants at 100 ug/plate after 48 to 72 hrs by Ames test in presence of S9 fraction; assay type: toxicity, organism-based; conditions: salmonella enterica subsp. enterica serovar typhimurium
# [9] = tested on: Salmonella typhimurium; test: Mutagenic activity in Salmonella Typhimurium TA98 assessed as number of his+ revertants at 500 ug/plate after 48 to 72 hrs by Ames test in absence of S9 fraction; assay type: toxicity, organism-based; conditions: salmonella enterica subsp. enterica serovar typhimurium
# [10] = tested on: Salmonella typhimurium; test: Mutagenic activity in Salmonella Typhimurium TA98 assessed as number of his+ revertants at 500 ug/plate after 48 to 72 hrs by Ames test in presence of S9 fraction; assay type: toxicity, organism-based; conditions: salmonella enterica subsp. enterica serovar typhimurium
# [11] = tested on: Salmonella typhimurium; test: Mutagenic activity in Salmonella Typhimurium TA98 assessed as number of his+ revertants at 1000 ug/plate after 48 to 72 hrs by Ames test in absence of S9 fraction; assay type: toxicity, organism-based; conditions: salmonella enterica subsp. enterica serovar typhimurium
# [12] = tested on: Salmonella typhimurium; test: Mutagenic activity in Salmonella Typhimurium TA98 assessed as number of his+ revertants at 1000 ug/plate after 48 to 72 hrs by Ames test in presence of S9 fraction; assay type: toxicity, organism-based; conditions: salmonella enterica subsp. enterica serovar typhimurium
# [13] = tested on: Salmonella typhimurium; test: Mutagenic activity in Salmonella Typhimurium TA100 assessed as number of his+ revertants at 100 ug/plate after 48 to 72 hrs by Ames test in absence of S9 fraction; assay type: toxicity, organism-based; conditions: salmonella enterica subsp. enterica serovar typhimurium
# [14] = tested on: Salmonella typhimurium; test: Mutagenic activity in Salmonella Typhimurium TA100 assessed as number of his+ revertants at 100 ug/plate after 48 to 72 hrs by Ames test in presence of S9 fraction; assay type: toxicity, organism-based; conditions: salmonella enterica subsp. enterica serovar typhimurium
# [15] = tested on: Salmonella typhimurium; test: Mutagenic activity in Salmonella Typhimurium TA100 assessed as number of his+ revertants at 500 ug/plate after 48 to 72 hrs by Ames test in absence of S9 fraction; assay type: toxicity, organism-based; conditions: salmonella enterica subsp. enterica serovar typhimurium
# [16] = tested on: Salmonella typhimurium; test: Mutagenic activity in Salmonella Typhimurium TA100 assessed as number of his+ revertants at 500 ug/plate after 48 to 72 hrs by Ames test in presence of S9 fraction; assay type: toxicity, organism-based; conditions: salmonella enterica subsp. enterica serovar typhimurium
# [17] = tested on: Salmonella typhimurium; test: Mutagenic activity in Salmonella Typhimurium TA100 assessed as number of his+ revertants at 1000 ug/plate after 48 to 72 hrs by Ames test in absence of S9 fraction; assay type: toxicity, organism-based; conditions: salmonella enterica subsp. enterica serovar typhimurium
# [18] = tested on: Salmonella typhimurium; test: Mutagenic activity in Salmonella Typhimurium TA100 assessed as number of his+ revertants at 1000 ug/plate after 48 to 72 hrs by Ames test in presence of S9 fraction; assay type: toxicity, organism-based; conditions: salmonella enterica subsp. enterica serovar typhimurium
# [19] = tested on: Salmonella typhimurium; test: Mutagenic activity in Salmonella Typhimurium TA102 assessed as number of his+ revertants at 100 ug/plate after 48 to 72 hrs by Ames test in absence of S9 fraction; assay type: toxicity, organism-based; conditions: salmonella enterica subsp. enterica serovar typhimurium
# [20] = tested on: Salmonella typhimurium; test: Mutagenic activity in Salmonella Typhimurium TA102 assessed as number of his+ revertants at 100 ug/plate after 48 to 72 hrs by Ames test in presence of S9 fraction; assay type: toxicity, organism-based; conditions: salmonella enterica subsp. enterica serovar typhimurium
# [21] = tested on: Salmonella typhimurium; test: Mutagenic activity in Salmonella Typhimurium TA102 assessed as number of his+ revertants at 500 ug/plate after 48 to 72 hrs by Ames test in absence of S9 fraction; assay type: toxicity, organism-based; conditions: salmonella enterica subsp. enterica serovar typhimurium
# [22] = tested on: Salmonella typhimurium; test: Mutagenic activity in Salmonella Typhimurium TA102 assessed as number of his+ revertants at 500 ug/plate after 48 to 72 hrs by Ames test in presence of S9 fraction; assay type: toxicity, organism-based; conditions: salmonella enterica subsp. enterica serovar typhimurium
# [23] = tested on: Salmonella typhimurium; test: Mutagenic activity in Salmonella Typhimurium TA102 assessed as number of his+ revertants at 1000 ug/plate after 48 to 72 hrs by Ames test in absence of S9 fraction; assay type: toxicity, organism-based; conditions: salmonella enterica subsp. enterica serovar typhimurium
# [24] = tested on: Salmonella typhimurium; test: Mutagenic activity in Salmonella Typhimurium TA102 assessed as number of his+ revertants at 1000 ug/plate after 48 to 72 hrs by Ames test in presence of S9 fraction; assay type: toxicity, organism-based; conditions: salmonella enterica subsp. enterica serovar typhimurium
# [25] = tested on: L929; test: Genotoxicity against mouse L929 cells assessed as number of micronuclei at 50 ug/ml; assay type: toxicity, cell-based
# [26] = tested on: Salmonella typhimurium; test: Cytotoxicity against Salmonella Typhimurium TA102 assessed as reduction in his+ revertants after 48 to 72 hrs in absence of S9 fraction; assay type: functional, Salmonella enterica subsp. enterica serovar Typhimurium; design: scale not given: the % may be the effect or the level left
# [27] = tested on: Salmonella typhimurium; test: Cytotoxicity against Salmonella Typhimurium TA102 assessed as reduction in his+ revertants after 48 to 72 hrs in presence of S9 fraction; assay type: functional, Salmonella enterica subsp. enterica serovar Typhimurium; design: scale not given: the % may be the effect or the level left
# [28] = tested on: Salmonella typhimurium; test: Cytotoxicity against Salmonella Typhimurium TA102 assessed as growth inhibition oh his+ revertants after 48 to 72 hrs; assay type: functional, Salmonella enterica subsp. enterica serovar Typhimurium; design: scale not given: the % may be the effect or the level left
# [29] = tested on: L929; test: Genotoxicity against mouse L929 cells assessed as number of micronuclei at 100 ug/ml; assay type: toxicity, cell-based
# [30] = tested on: Salmonella typhimurium; test: Cytotoxicity against Salmonella Typhimurium TA97 assessed as reduction in his+ revertants number at 500 ug/plate after 48 to 72 hrs in absence of S9 fraction; assay type: functional, Salmonella enterica subsp. enterica serovar Typhimurium; design: scale not given: the % may be the effect or the level left
# [31] = tested on: Salmonella typhimurium; test: Cytotoxicity against Salmonella Typhimurium TA98 assessed as reduction in his+ revertants number at 500 ug/plate after 48 to 72 hrs in absence of S9 fraction; assay type: functional, Salmonella enterica subsp. enterica serovar Typhimurium; design: scale not given: the % may be the effect or the level left
# [32] = tested on: Salmonella typhimurium; test: Cytotoxicity against Salmonella Typhimurium TA100 assessed as reduction in his+ revertants number at 500 ug/plate after 48 to 72 hrs in absence of S9 fraction; assay type: functional, Salmonella enterica subsp. enterica serovar Typhimurium; design: scale not given: the % may be the effect or the level left
# [33] = tested on: Salmonella typhimurium; test: Cytotoxicity against Salmonella Typhimurium TA102 assessed as reduction in his+ revertants number at 500 ug/plate after 48 to 72 hrs in absence of S9 fraction; assay type: functional, Salmonella enterica subsp. enterica serovar Typhimurium; design: scale not given: the % may be the effect or the level left
# [34] = tested on: Salmonella typhimurium; test: Cytotoxicity against Salmonella Typhimurium TA97 assessed as reduction in his+ revertants number at 500 ug/plate after 48 to 72 hrs in presence of S9 fraction; assay type: functional, Salmonella enterica subsp. enterica serovar Typhimurium; design: scale not given: the % may be the effect or the level left
# [35] = tested on: Salmonella typhimurium; test: Cytotoxicity against Salmonella Typhimurium TA98 assessed as reduction in his+ revertants number at 500 ug/plate after 48 to 72 hrs in presence of S9 fraction; assay type: functional, Salmonella enterica subsp. enterica serovar Typhimurium; design: scale not given: the % may be the effect or the level left
# [36] = tested on: Salmonella typhimurium; test: Cytotoxicity against Salmonella Typhimurium TA100 assessed as reduction in his+ revertants number at 500 ug/plate after 48 to 72 hrs in presence of S9 fraction; assay type: functional, Salmonella enterica subsp. enterica serovar Typhimurium; design: scale not given: the % may be the effect or the level left
# [37] = tested on: Salmonella typhimurium; test: Cytotoxicity against Salmonella Typhimurium TA102 assessed as reduction in his+ revertants number at 500 ug/plate after 48 to 72 hrs in presence of S9 fraction; assay type: functional, Salmonella enterica subsp. enterica serovar Typhimurium; design: scale not given: the % may be the effect or the level left
SMILES,Activity [1],Activity [2],Activity [3],Activity [4],Activity [5],Activity [6],Activity [7],Activity [8],Activity [9],Activity [10],Activity [11],Activity [12],Activity [13],Activity [14],Activity [15],Activity [16],Activity [17],Activity [18],Activity [19],Activity [20],other results
C/C=C/c1c(OC)cc(OC)cc1OC,163,175,190,200,223,187,32,24,32,18,26,22,138,153,134,156,148,126,275,333,Activity [21]: 298; Activity [22]: 328; Activity [23]: 195; Activity [24]: 218; Activity [25]: 3.44%; Activity [26]: 28%; Activity [27]: 27%; Activity [28]: 28%
C/C=C/c1ccc(OC)c(OC)c1OC,151,212,151,200,131,172,27,44,22,43,20,26,108,167,116,160,100,132,236,343,Activity [21]: 203; Activity [22]: 335; Activity [23]: 160; Activity [24]: 233; Activity [29]: 3.79%; Activity [30]: 23%; Activity [31]: 23%; Activity [32]: 23%; Activity [33]: 23%; Activity [34]: 9%; Activity [35]: 9%; Activity [36]: 9%; Activity [37]: 9%
